# Measured values reported in patent publication US10064913B2, “Immunotherapy against several tumors including gastrointestinal and gastric cancer” (IMMATICS BIOTECHNOLOGIES GMBH, priority 2010, dated 2018).
# Key:
# [1] = test system: CD8+ T cells; test: In vitro immunogenicity of HLA-A*0201 restricted TUMAPs (aAPC priming of CD8+ T cells, multimer staining); format: cell-based, human; settings: HLA-A*0201 peptides, CD8+ T cells from HLA-A*2 buffy coats of healthy donors, three stimulation cycles
# Text: (§1) In order to perform in vitro stimulations by artificial antigen presenting cells (aAPC) loaded with peptide-MHC complex (pMHC) and anti-CD28 antibody, we first isolated CD8 T cells from fresh HLA-A*24 leukapheresis products or from HLA-A*2 buffy coats of healthy donors obtained from the Blood Bank Tuebingen.
# (§2) CD8 T cells were either directly enriched or PBMCs (peripheral blood mononuclear cells) were isolated first by using standard gradient separation medium (PAA, Colbe, Germany). Isolated CD8 lymphocytes or PBMCs were incubated until use in T-cell medium (TCM) consisting of RPMI-Glutamax (Invitrogen, Karlsruhe, Germany) supplemented with 10% heat inactivated human AB serum (PAN-Biotech, Aidenbach, Germany), 100 U/ml Penicillin/100 μg/ml Streptomycin (Cambrex, Cologne, Germany), 1 mM sodium pyruvate (CC Pro, Oberdorla, Germany), 20 μg/ml Gentamycin (Cambrex). […] Isolation of CD8+ lymphocytes was performed by positive selection using CD8 MicroBeads (Miltenyi Biotec, Bergisch-Gladbach, Germany).
# (§3) 800.000 beads/200 μl were coated in 96-well plates in the presence of 600 ng biotin-anti-CD28 plus 200 ng relevant biotin-pMHC (high density beads). […] Half of the medium was then exchanged by fresh TCM supplemented with 80 U/ml IL-2 and incubation was continued for 3-4 days at 37° C. This stimulation cycle was performed for a total of three times.
# (§4) In vitro priming of specific multimer+CD8+ lymphocytes was detected by appropriate gating and by comparing to negative control stimulations.
# [2] = test system: CD8+ T cells; test: In vitro immunogenicity of HLA-A*2402 restricted TUMAPs (aAPC priming of CD8+ T cells, multimer staining); format: cell-based, human; settings: HLA-A*2402 peptides, CD8+ T cells of healthy HLA-A*24 donors, three stimulation cycles with pMHC/anti-CD28 beads; for Wells positive/evaluable [%]: at least 48 wells evaluable; for Donors positive/evaluable [%]: at least four donors evaluable
# Text: as §1, §2, §3, §4
# [3] = peptide included in vaccines IMA901 and IMA910, described in other applications by immatics; cited from earlier work
Sequence,Donors positive/evaluable [%] [1],Wells positive/evaluable [%] [1],Wells positive/evaluable [%] [2],Donors positive/evaluable [%] [2],in vivo reactions [3]
KIFDEILVNA (listed as Homo sapiens) [TOP-001],40%,10%,–,–,–
KIQEILTQV (listed as Homo sapiens) [IGF2BP3-001],50%,21%,–,–,–
VYISSLALL (listed as Homo sapiens) [PSMD14-001],–,–,1%,17%,–
VYKVVGNLL (listed as Homo sapiens) [IQGAP3-001],–,–,24%,100%,–
VYLLNSTTL (listed as Homo sapiens) [CLCN3-001],–,–,6%,33%,–
VYNPTPNSL (listed as Homo sapiens) [COL12A1-001],–,–,0%,0%,–
VYPNWAIGL (listed as Homo sapiens) [SLC6A6-001],–,–,1%,17%,–
VYTTMAEHF (listed as Homo sapiens) [TSPAN1-002],–,–,1%,17%,–
VYTTSYQQI (listed as Homo sapiens) [NFYB-001],–,–,7%,50%,–
YVDPVITSI (listed as Homo sapiens) [MET-001],67%,42%,–,–,extremely good in vivo reactions
YYKNIGLGF (listed as Homo sapiens) [RPS11-001],–,–,3%,17%,–
YYNAAGFNKL (listed as Homo sapiens) [UQCRB-001],–,–,24%,83%,–
YYYVGFAYL (listed as Homo sapiens) [EIF3L-001],–,–,29%,100%,–
